Earlier results on one compound are cited in US8349982B2, “Macromonomers and hydrogels” (William Marsh Rice University, priority 2006, dated 2013).

For the data set the following is noted: stated as typical.

As to `C=CC(=O)OCC(CO)(COC(=O)C=C)COC(=O)CCCCCCCCCCCCCCCCC` [PEDAS, Pentaerythritol diacrylate monostearate], the “Solubility in water (in words)” value is reported as “insoluble in water”.
